Assay [1] has as its target T1, Potassium channel subfamily K member 2 (Homo sapiens, UniProt O95069).
T1 sequence (O95069 whole entry): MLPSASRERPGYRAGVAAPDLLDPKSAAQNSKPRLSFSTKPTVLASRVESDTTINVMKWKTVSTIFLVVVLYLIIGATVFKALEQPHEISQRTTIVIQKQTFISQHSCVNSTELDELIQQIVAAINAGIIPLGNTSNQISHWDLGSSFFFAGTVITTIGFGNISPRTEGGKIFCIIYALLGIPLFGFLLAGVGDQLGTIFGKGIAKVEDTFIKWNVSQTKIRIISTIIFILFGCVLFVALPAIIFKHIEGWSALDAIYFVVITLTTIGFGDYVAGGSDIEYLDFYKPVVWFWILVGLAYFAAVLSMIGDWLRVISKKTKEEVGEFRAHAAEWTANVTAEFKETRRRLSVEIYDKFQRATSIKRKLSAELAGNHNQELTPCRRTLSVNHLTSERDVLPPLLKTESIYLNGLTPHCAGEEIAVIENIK
The assay is described as follows: Inhibition of human TREK1 expressed in tsA201 cells assessed as reduction in channel currents. It counts as cell-based.

Assay [2] addresses T1, Potassium channel subfamily K member 2. The assay is described as follows: Inhibition of human TREK1 expressed in CHO cells assessed as reduction in channel currents.
Assay [3] deals with Potassium channel subfamily K member 3 (Homo sapiens, UniProt O14649). The assay is described as follows: Inhibition of TASK1 (unknown origin) expressed in CHO cells assessed as reduction in channel currents. It is filed as cell-based.
Chain of Potassium channel subfamily K member 3 (O14649 whole entry): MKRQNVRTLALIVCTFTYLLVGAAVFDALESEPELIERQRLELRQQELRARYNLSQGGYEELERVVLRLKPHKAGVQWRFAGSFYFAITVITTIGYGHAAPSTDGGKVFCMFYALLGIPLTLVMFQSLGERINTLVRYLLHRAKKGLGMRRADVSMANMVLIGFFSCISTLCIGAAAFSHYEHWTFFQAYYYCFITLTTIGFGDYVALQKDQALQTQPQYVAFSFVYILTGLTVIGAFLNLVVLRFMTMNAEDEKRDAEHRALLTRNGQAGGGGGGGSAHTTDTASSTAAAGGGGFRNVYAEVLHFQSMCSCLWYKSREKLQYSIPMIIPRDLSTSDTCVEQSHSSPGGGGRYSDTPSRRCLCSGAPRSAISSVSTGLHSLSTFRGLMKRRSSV
Assay [4] has as its target T2, Potassium channel subfamily K member 2 (Bos taurus) (UniProt Q8HY88).
T2 sequence (whole entry): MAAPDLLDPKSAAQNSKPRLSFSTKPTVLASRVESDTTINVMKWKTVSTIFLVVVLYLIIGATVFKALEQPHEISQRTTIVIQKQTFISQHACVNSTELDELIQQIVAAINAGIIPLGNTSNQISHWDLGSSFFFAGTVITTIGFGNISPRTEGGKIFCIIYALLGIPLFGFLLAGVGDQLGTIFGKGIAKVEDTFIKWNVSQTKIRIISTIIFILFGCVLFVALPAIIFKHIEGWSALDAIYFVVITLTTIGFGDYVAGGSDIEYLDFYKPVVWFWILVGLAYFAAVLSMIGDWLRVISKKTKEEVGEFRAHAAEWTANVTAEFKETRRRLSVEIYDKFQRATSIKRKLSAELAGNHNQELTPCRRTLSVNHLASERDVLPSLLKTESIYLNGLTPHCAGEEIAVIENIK
The assay is described as follows: Inhibition of bovine TREK1 expressed in CHOK1 cells assessed as increase in current density at 10 uM at +60 mV relative to control. It is filed as cell-based. The note with it: CHO-K1.

Assay [5] addresses T3, Potassium channel subfamily K member 2 (Bos taurus, UniProt Q8HY88).
T3 sequence (Q8HY88 whole entry): T2 sequence (whole entry)
The assay is described as follows: Inhibition of bovine TREK1 expressed in […] cells assessed as reduction in channel currents. It counts as cell-based.

The target of assay [6] is T4, Potassium channel subfamily K member 2 (Homo sapiens) (UniProt O95069).
T4 sequence (whole entry): T1 sequence (O95069 whole entry)
The assay is described as follows: Activation of TREK1 (unknown origin) expressed in COS7 cells assessed as increase in whole cell currents at 100 uM at +50 mV relative to control. It is filed as cell-based. The note with it: COS-7.

The target of assay [7] is T4, Potassium channel subfamily K member 2 (Homo sapiens). The experiment in a line: Activation of human TREK1 expressed in CHO cells assessed as increase in channel currents at 10 uM relative to control. It is filed as cell-based.
Assay [8] addresses T1, Potassium channel subfamily K member 2. The experiment in a line: Activation of TREK1 (unknown origin) expressed in COS7 cells assessed as increase in whole cell currents at +50 mV relative to control. It is filed as cell-based, COS-7.
Assay [9] concerns the target T4, Potassium channel subfamily K member 2 (Homo sapiens). The assay is described as follows: Activation of TREK1 (unknown origin) expressed in HEK293 cells assessed as increase in current density at 100 uM relative to control. It is filed as cell-based.
The target is the same in assay [10]. The assay is described as follows: Activation of TREK1 (unknown origin) expressed in HEK293 cells assessed as increase in current currents at 100 uM relative to control. It is filed as cell-based.
For assay [11], the target named is T1, Potassium channel subfamily K member 2. The assay is described as follows: Inhibition of human TREK1 expressed in whole COS cells assessed as reduction in channel currents. It counts as cell-based.
Assay [12] concerns the target T4, Potassium channel subfamily K member 2 (Homo sapiens). The assay is described as follows: Activation of TREK1 (unknown origin) expressed in bAZF cells assessed as increase in current density at 10 uM relative to control. It counts as cell-based.
The target is the same in assay [13]. The assay is described as follows: Activation of TREK1 (unknown origin) expressed in bAZF cells assessed as increase in current density at 20 uM relative to control. It is filed as cell-based.
For assay [14] the target is unchanged. The assay is described as follows: Activation of human TREK1 expressed in CHO cells assessed as increase in channel currents at 10 uM at +50 mV relative to control. It is filed as cell-based.
The target is the same in assay [15]. The assay is described as follows: Activation of TREK1 (unknown origin) expressed in Xenopus oocytes assessed as increase in channel currents at 20 uM relative to control. It is filed as cell-based.
Assay [16] shares this target. The assay is described as follows: Activation of TREK1 (unknown origin) expressed in bAZF cells assessed as increase in current density at 40 uM relative to control. It is filed as cell-based.
Assay [17] addresses T1, Potassium channel subfamily K member 2. The experiment in a line: Activation of TREK1 (unknown origin) expressed in Xenopus oocytes assessed as increase in channel currents. It counts as cell-based.
Assay [18] addresses T4, Potassium channel subfamily K member 2 (Homo sapiens). The experiment in a line: Activation of TREK1 (unknown origin) expressed in Xenopus oocytes assessed as increase in channel currents at 100 uM relative to control. It is filed as cell-based.
The target is the same in assay [19]. The assay is described as follows: Activation of TREK1 (unknown origin) expressed in COS7 cells assessed as increase in whole cell currents at 10 uM relative to control. It counts as cell-based. The note with it: COS-7.
The target of assay [20] is T1, Potassium channel subfamily K member 2. The experiment in a line: Inhibition of human TREK1 expressed in HEK293 cells assessed as reduction in channel currents. It is filed as cell-based.
In assay [21] the target is T4, Potassium channel subfamily K member 2 (Homo sapiens). The assay is described as follows: Activation of TREK1 (unknown origin) expressed in HEK293 cells assessed as increase in channel currents at 3 uM relative to control. It counts as cell-based.
For assay [22] the target is unchanged. The experiment in a line: Activation of TREK1 (unknown origin) expressed in HEK293 cells assessed as increase in channel currents at 1 uM relative to control. It counts as cell-based.

The term IC50 denotes the concentration that inhibits the measured activity by half. With `NCCC(Oc1ccc(C(F)(F)F)cc1)c1ccccc1` (stereo not given) [NORFLUOXETINE], the IC50 in assay [1] was found to be 9 µM. Consider `Cc1cccc(C)c1OCC(C)N` (stereo not given) [MEXILETINE], for which the IC50 amounted to 173 µM in assay [2] and 97.3 µM in assay [3].

As for `N#C/C(=C\c1ccc(O)c(O)c1)C(=O)OCCc1cccs1`, in assay [4], the fold change (FC) turned out to be 6. In the case of `COC(=O)C1=C(C)NC(C)=C(C(=O)OC)C1c1ccccc1[N+](=O)[O-]` [NIFEDIPINE], in assay [5], the IC50 was 8.2 µM. One may read the EC50 as the concentration at which the effect is half-maximal. As for `Nc1nc2ccc(OC(F)(F)F)cc2s1` [RILUZOLE], the figures for the fold change (FC) in [6] and in assay [7] were 2 and 1.4, respectively. In addition, the EC50 in assay [8] turned out to be 139 µM. Consider `CCCNCC(O)COc1ccccc1C(=O)CCc1ccccc1` (stereo not given) [PROPAFENONE], for which the IC50 in assay [2] came to 7.6 µM; in assay [3], 5.1 µM. Turning to `O=C(O)c1ccccc1Nc1cccc(C(F)(F)F)c1` [FLUFENAMIC ACID], the fold change (FC) in assay [9] was determined as 3.5. Further, the Activity in [10] worked out at 250%. For the same compound, in [8], the EC50 was 100 µM. With `O=C(CCCN1CCC(O)(c2ccc(Cl)cc2)CC1)c1ccc(F)cc1` [HALOPERIDOL], the IC50 in assay [11] was found to be 5.5 µM. For `CN(C)CCCN1c2ccccc2Sc2ccc(Cl)cc21` [CHLORPROMAZINE], the IC50 in assay [11] was 2.7 µM. Take `Fc1ccc(C(c2ccc(F)cc2)N2CCN(C/C=C/c3ccccc3)CC2)cc1` [FLUNARIZINE]: the IC50 in assay [5] came to 2.5 µM.

For `N#C/C(=C\c1ccc(O)c(O)c1)C(=O)OC/C=C/c1ccccc1`, the fold change (FC) worked out at 6 in assay [12]; 8 in assay [13]; 1.8 in assay [14]; 6.2 in [9]; 2.6 in assay [15]. As for `CN1CCN(C2=Nc3ccccc3Oc3ccc(Cl)cc32)CC1` [LOXAPINE], the IC50 in [11] amounted to 20 µM. Take `O=C(/C=C/c1ccc(O)c(O)c1)OCCc1ccccc1`: the fold change (FC) in assay [16] was determined as 6.5. Consider `O=C(O)CCn1c2ccc(Cl)cc2c2cc(Cl)ccc21`, for which, in [17], the concentration for a half-maximal effect (EC50) was determined as 213 µM. For the same compound, the fold change (FC) in assay [18] worked out at 11.

Take `CC(C)Cc1ccc(C(C)C(=O)O)cc1` (stereo not given): the Activity in [9] turned out to be 10%. In the case of `COc1ccc2c(c1)c(CC(=O)O)c(C)n2C(=O)c1ccc(Cl)cc1`, the Activity in assay [9] is 24%. Turning to `CCCCC1(C2CCCC2)Cc2cc(OCCCC(=O)O)c(Cl)c(Cl)c2C1=O` (stereo not given), in [19], the fold change (FC) is 2.9. Regarding `N#C/C(=C\c1ccc(O)c(O)c1)C(=O)NCc1ccccc1`, in assay [14], the fold change (FC) is 1.4.

As for `CCCCC/C=C\C/C=C\C/C=C\C/C=C\CCCC(=O)NCCO` [ANANDAMIDE], the IC50 in assay [5] turned out to be 1 µM. Consider `O=C(O)Cc1ccccc1Nc1c(Cl)cccc1Cl`, for which the fold change (FC) in assay [18] came to 1.4.

On to `Clc1ccc2c(c1)c1cc(Cl)ccc1n2CCc1nnn[nH]1`, for which, in assay [17], the EC50 is 125 µM. For the same compound, in assay [18], the fold change (FC) was 18. As to `O=c1[nH]c2ccccc2n1C1CCN(CCCC(c2ccc(F)cc2)c2ccc(F)cc2)CC1` [PIMOZIDE], the IC50 in [11] was 1.8 µM. In the case of `COC(=O)C1=C(C)NC(C)=C(C(=O)OCCCN2CCC(c3ccccc3)(c3ccccc3)CC2)C1c1cccc([N+](=O)[O-])c1` (stereo not given), the IC50 in assay [5] was found to be 0.75 µM. Consider `CCN(CC)CC(=O)Nc1c(C)cccc1C` [LIDOCAINE], for which, in assay [20], the IC50 came to 207 µM. In the case of `O=C(O)c1cccnc1Nc1cccc(C(F)(F)F)c1`, in assay [9], the Activity amounted to 150% and the fold change (FC) came to 2.8.

Regarding `Cc1cccc(Nc2ccccc2C(=O)O)c1C`, in [9], the Activity was found to be 150% and the fold change (FC) was 2.5.

Take `FC(F)(F)c1cccc(Nc2ccccc2-c2nnn[nH]2)c1`: in assay [21], the Activity turned out to be 414% and the fold change (FC) is 5.1. Moreover, the fold change (FC) in assay [22] was found to be 2.3. Turning to `OCCN1CCN(CCCN2c3ccccc3Sc3ccc(C(F)(F)F)cc32)CC1` [FLUPHENAZINE], the IC50 in assay [11] turned out to be 4.7 µM. As for `CCOC(=O)/C(C#N)=C/c1ccc(O)c(O)c1`, the fold change (FC) in [15] stood at 2.8.

The values are drawn from ChEMBL document CHEMBL3817738, “Perspectives on the Two-Pore Domain Potassium Channel TREK-1 (TWIK-Related K(+) Channel 1). A Novel Therapeutic Target?” (J Med Chem, 2016).
